Drawing on patent publication US10450270B2, “Glyoxamide substituted pyrrolamide derivatives and the use thereof as medicaments for the treatment of hepatitis B” (Janssen Sciences Ireland UC, priority 2013, dated 2019), this text covers CC50 and EC50 for 26 compounds.

A value given as a limit tells only on which side of the number the result lay.

Data set [1] is described as follows: Cytotoxicity in HepG2 cells, Resazurin viability assay. The following applies: human, HepG2 cells. (In general: The colour change of resazurin is a common sign of viable cells or microbes.)
In the next data set the test system is HBV. Nature of the data set: Anti-HBV activity, HepG2.117 inducible HBV producing cell line (Tet-off), intracellular HBV DNA by realtime PCR. The following applies: Hepatitis B virus, 72 h; HepG2.117 cells, 3 days of treatment, intracellular HBV DNA; read-out: HepG2 117 EC50. In kind it is cell-based.

As usually defined, the CC50 is the concentration that lowers cell viability or growth by half. A high value points to lower toxicity to the cells. As usually defined, the EC50 is the concentration at which the effect is half-maximal. `CCCC[C@@H](CO)NC(=O)C(=O)c1cc(C(=O)Nc2ccc(F)c(C#N)c2)n(C)c1C` [Compound 63, N-(3-cyano-4-fluoro-phenyl)-4-[2-[[(1S)-1-(hydroxymethyl)pentyl]amino]-2-oxo-acetyl]-1,5-dimethyl-pyrrole-2-carboxamide]: the CC50 at 4 days in data set [1] was > 25 µM. Further, the concentration for a half-maximal effect (EC50) with HBV amounted to 210 nM.
Regarding `CC[C@@H](NC(=O)C(=O)c1c(Cl)c(C(=O)Nc2ccc(F)c(C#N)c2)n(C)c1C)C(F)(F)F` [Compound 42, 3-chloro-N-(3-cyano-4-fluoro-phenyl)-1,5-dimethyl-4-[2-oxo-2-[[(1R)-1-(trifluoromethyl)propyl]amino]acetyl]pyrrole-2-carboxamide], in data set [1], the cytotoxic concentration (CC50) at 4 days is > 25 µM. Also, in the data set on HBV, the EC50 stood at 2 nM.
`Cn1cc(C(=O)C(=O)NC(C)(C)C)c(F)c1C(=O)Nc1ccc(F)c(C#N)c1` [Compound 34, 4-[2-(tert-butylamino)-2-oxo-acetyl]-N-(3-cyano-4-fluoro-phenyl)-3-fluoro-1-methyl-pyrrole-2-carboxamide]: in data set [1], the CC50 at 4 days was > 25 µM. In addition, in the data set on HBV, the half-maximal effective concentration (EC50) was found to be 9 nM.
With `C[C@H](NC(=O)C(=O)c1cc(C(=O)Nc2ccc(F)c(C#N)c2)n(C)c1)C(F)(F)F` [Compound 51, N-(3-cyano-4-fluoro-phenyl)-1-methyl-4-[2-oxo-2-[[(1S)-2,2,2-trifluoro-1-methyl-ethyl]amino]acetyl]pyrrole-2-carboxamide], the CC50 at 4 days in data set [1] is > 25 µM. Moreover, in the data set with HBV, the EC50 stood at 42 nM.
In data set [1], `Cn1cc(C(=O)C(=O)NC2(C(F)(F)F)CCOC2)c(F)c1C(=O)Nc1ccc(F)c(C#N)c1` (stereo not shown) [Compound 83, N-(3-cyano-4-fluoro-phenyl)-3-fluoro-1-methyl-4-[2-oxo-2-[[3-(trifluoro-methyl)tetrahydrofuran-3-yl]amino]acetyl]pyrrole-2-carboxamide] came in with a CC50 at 4 days of 11.8 µM. The EC50 with HBV is 6 nM.
As to `Cc1c(C(=O)C(=O)NC2(C)CCCOC2)cc(C(=O)Nc2ccc(F)c(C#N)c2)n1C` (stereo not shown) [Compound 78, N-(3-cyano-4-fluoro-phenyl)-1,5-dimethyl-4-[2-[(3-methyltetrahydropyran-3-yl)amino]-2-oxo-acetyl]pyrrole-2-carboxamide], in data set [1], the half-maximal cytotoxic concentration (CC50) at 4 days is > 25 µM. In addition, the EC50 in the data set with HBV is 8 nM.
For `Cn1c(Cl)c(C(=O)C(=O)NC2(C(F)(F)F)CCOC2)c(F)c1C(=O)Nc1ccc(F)c(C#N)c1` (stereo not shown) [Compound 89, 5-chloro-N-(3-cyano-4-fluoro-phenyl)-3-fluoro-1-methyl-4-[2-oxo-2-[[3-(trifluoromethyl)tetrahydrofuran-3-yl]amino]acetyl]pyrrole-2-carboxamide], in that order: > 25 µM and 8 nM.
For `Cc1c(C(=O)C(=O)NC2(C(F)(F)F)CC2)cc(C(=O)Nc2ccc(F)c(C#N)c2)n1C` [Compound 57, N-(3-cyano-4-fluoro-phenyl)-1,5-dimethyl-4-[2-oxo-2-[[1-(trifluoromethyl)-cyclopropyl]amino]acetyl]pyrrole-2-carboxamide], in that order: > 25 µM and 6 nM.
As to `Cc1c(C(=O)C(=O)NC2(CO)COC2)cc(C(=O)Nc2ccc(F)c(C#N)c2)n1C` [Compound 71, N-(3-cyano-4-fluoro-phenyl)-4-[2-[[3-(hydroxymethyl)oxetan-3-yl]amino]-2-oxo-acetyl]-1,5-dimethyl-pyrrole-2-carboxamide], in data set [1], the CC50 at 4 days was > 25 µM. In the data set with HBV, the EC50 was 24 nM.
For the compound `Cc1c(C(=O)C(=O)NC(CCO)C2CC2)cc(C(=O)Nc2ccc(F)c(C#N)c2)n1C` (stereo not shown) [Compound 74, N-(3-cyano-4-fluoro-phenyl)-4-[2-[(1-cyclopropyl-3-hydroxy-propyl)-amino]-2-oxo-acetyl]-1,5-dimethyl-pyrrole-2-carboxamide], the CC50 at 4 days in data set [1] is > 25 µM. Further, the EC50 in the data set with HBV stood at 15 nM.
On to `Cc1c(C(=O)C(=O)NC2(C)CC(F)(F)C2)cc(C(=O)Nc2ccc(F)c(C#N)c2)n1C` [Compound 56, N-(3-cyano-4-fluoro-phenyl)-4-[2-[(3,3-difluoro-1-methyl-cyclobutyl)-amino]-2-oxo-acetyl]-1,5-dimethyl-pyrrole-2-carboxamide], for which the CC50 at 4 days in data set [1] was > 25 µM. For the same compound, the EC50 with HBV was found to be 5 nM.
In the same order, the values of `CCC(C)(CO)NC(=O)C(=O)c1cc(C(=O)Nc2ccc(F)c(C#N)c2)n(C)c1C` (stereo not shown) [Compound 76, N-(3-cyano-4-fluoro-phenyl)-4-[2-[[1-(hydroxymethyl)-1-methyl-propyl]-amino]-2-oxo-acetyl]-1,5-dimethyl-pyrrole-2-carboxamide] are > 25 µM and 13 nM.
As to `Cn1c(Cl)c(C(=O)C(=O)NC2(C(F)(F)F)CCC2)c(F)c1C(=O)Nc1ccc(F)c(C#N)c1` [Compound 90, 5-chloro-N-(3-cyano-4-fluoro-phenyl)-3-fluoro-1-methyl-4-[2-oxo-2-[[1-(trifluoromethyl)cyclobutyl]amino]acetyl]pyrrole-2-carboxamide], the half-maximal cytotoxic concentration (CC50) at 4 days in data set [1] was > 25 µM. For the same compound, in the data set with HBV, the EC50 worked out at 32 nM.
As to `C[C@@H](NC(=O)C(=O)c1cc(C(=O)Nc2ccc(F)c(C#N)c2)n(C)c1Br)C(F)(F)F` [Compound 25, 5-bromo-N-(3-cyano-4-fluoro-phenyl)-1-methyl-4-[2-oxo-2-[[(1R)-2,2,2-trifluoro-1-methyl-ethyl]amino]acetyl]pyrrole-2-carboxamide], the CC50 at 4 days in data set [1] was > 25 µM. Further, the EC50 in the data set with HBV was > 1000 nM.
As to `C[C@H](CO)NC(=O)C(=O)c1cn(C)c(C(=O)Nc2ccc(F)c(C#N)c2)c1F` [Compound 95, N-(3-cyano-4-fluoro-phenyl)-3-fluoro-4-[2-[[(1R)-2-hydroxy-1-methyl-ethyl]amino]-2-oxo-acetyl]-1-methyl-pyrrole-2-carboxamide], the half-maximal cytotoxic concentration (CC50) at 4 days in data set [1] was > 25 µM. In the data set with HBV, the concentration giving a half-maximal response (EC50) was 65 nM.
In the case of `CC[C@@H](NC(=O)C(=O)c1cn(C)c(C(=O)Nc2ccc(F)c(C#N)c2)c1Cl)C(F)(F)F` [Compound 38, 3-chloro-N-(3-cyano-4-fluoro-phenyl)-1-methyl-4-[2-oxo-2-[[(1R)-1-(trifluoromethyl)propyl]amino]acetyl]pyrrole-2-carboxamide], the CC50 at 4 days in data set [1] is > 25 µM. Besides, the EC50 in the data set on HBV was determined as 15 nM.
On to `Cn1c(Br)c(C(=O)C(=O)NC(C)(C)C)c(Cl)c1C(=O)Nc1ccc(F)c(C#N)c1` [Compound 50, 5-bromo-4-[2-(tert-butylamino)-2-oxo-acetyl]-3-chloro-N-(3-cyano-4-fluoro-phenyl)-1-methyl-pyrrole-2-carboxamide], for which, in data set [1], the cytotoxic concentration (CC50) at 4 days was > 25 µM. For the same compound, the EC50 in the data set on HBV is 4 nM.
For `COCC(C)(C)NC(=O)C(=O)c1cc(C(=O)Nc2ccc(F)c(C#N)c2)n(C)c1C` [Compound 79, N-(3-cyano-4-fluoro-phenyl)-4-[2-[(2-methoxy-1,1-dimethyl-ethyl)amino]-2-oxo-acetyl]-1,5-dimethyl-pyrrole-2-carboxamide], the cytotoxic concentration (CC50) at 4 days in data set [1] is > 25 µM. Also, the EC50 in the data set on HBV is 8 nM.
Turning to `CCCC[C@H](CO)NC(=O)C(=O)c1cc(C(=O)Nc2ccc(F)c(C#N)c2)n(C)c1C` [Compound 75, N-(3-cyano-4-fluoro-phenyl)-4-[2-[[(1R)-1-(hydroxymethyl)pentyl]amino]-2-oxo-acetyl]-1,5-dimethyl-pyrrole-2-carboxamide], the CC50 at 4 days in data set [1] is > 25 µM. The concentration giving a half-maximal response (EC50) with HBV turned out to be 14 nM.
For the compound `Cc1c(C(=O)C(=O)NC(C)(C)C)cc(C(=O)Nc2ccc(F)c(C#N)c2)n1C` [Compound 59, 4-[2-(tert-butylamino)-2-oxo-acetyl]-N-(3-cyano-4-fluoro-phenyl)-1,5-dimethyl-pyrrole-2-carboxamide], the CC50 at 4 days in data set [1] is > 25 µM. In addition, in the data set with HBV, the EC50 stood at 4 nM.
For `COCC(C)(NC(=O)C(=O)c1cc(C(=O)Nc2ccc(F)c(C#N)c2)n(C)c1C)C(F)(F)F` (stereo not shown) [Compound 80, N-(3-cyano-4-fluoro-phenyl)-1,5-dimethyl-4-[2-oxo-2-[[2,2,2-trifluoro-1-(methoxymethyl)-1-methyl-ethyl]amino]acetyl]pyrrole-2-carboxamide], in that order: > 25 µM and 7 nM.
Regarding `Cc1c(C(=O)C(=O)N[C@H](C)C(C)(F)F)cc(C(=O)Nc2ccc(F)c(C#N)c2)n1C` [Compound 54, N-(3-cyano-4-fluoro-phenyl)-4-[2-[[(1R)-2,2-difluoro-1-methyl-propyl]-amino]-2-oxo-acetyl]-1,5-dimethyl-pyrrole-2-carboxamide], the cytotoxic concentration (CC50) at 4 days in data set [1] was > 25 µM. In addition, the EC50 with HBV is 10 nM.
For the compound `COCC(C)(CCO)NC(=O)C(=O)c1cc(C(=O)Nc2ccc(F)c(C#N)c2)n(C)c1C` (stereo not shown) [Compound 70, N-(3-cyano-4-fluoro-phenyl)-4-[2-[[3-hydroxy-1-(methoxymethyl)-1-methyl-propyl]amino]-2-oxo-acetyl]-1,5-dimethyl-pyrrole-2-carboxamide], in data set [1], the CC50 at 4 days was > 25 µM. Also, the EC50 in the data set with HBV worked out at 25 nM.
In the case of `Cc1c(C(=O)C(=O)NC2(C(F)(F)F)CCC2)c(Cl)c(C(=O)Nc2ccc(F)c(C#N)c2)n1C` [Compound 43, 3-chloro-N-(3-cyano-4-fluoro-phenyl)-1,5-dimethyl-4-[2-oxo-2-[[1-(tri-fluoromethyl)cyclobutyl]amino]acetyl]pyrrole-2-carboxamide], the cytotoxic concentration (CC50) at 4 days in data set [1] is > 25 µM. In addition, in the data set on HBV, the EC50 came out at 3 nM.
For the compound `Cc1c(C(=O)C(=O)N[C@H](CO)C(C)C)cc(C(=O)Nc2ccc(F)c(C#N)c2)n1C` [Compound 68, N-(3-cyano-4-fluoro-phenyl)-4-[2-[[(1S)-1-(hydroxymethyl)-2-methyl-propyl]amino]-2-oxo-acetyl]-1,5-dimethyl-pyrrole-2-carboxamide], the cytotoxic concentration (CC50) at 4 days in data set [1] is > 25 µM. In addition, the 50% effective concentration (EC50) with HBV was found to be 78 nM.
With `Cn1c(C#N)c(C(=O)C(=O)NC(C)(C)C)c(Cl)c1C(=O)Nc1ccc(F)c(C#N)c1` [Compound 49, 4-[2-(tert-butylamino)-2-oxo-acetyl]-3-chloro-5-cyano-N-(3-cyano-4-fluoro-phenyl)-1-methyl-pyrrole-2-carboxamide], the 50% cytotoxic concentration (CC50) at 4 days in data set [1] was > 25 µM. For the same compound, in the data set with HBV, the half-maximal effective concentration (EC50) was 34 nM.
